The values that follow come from ChEMBL document CHEMBL5226366, “Synthesis and Structure Revision of Naturally Occurring Homoisoflavane (+)-Dracaeconolide B” (2023).

For one assay, the system named is HUVEC. The experiment in a line: Antiangiogenic activity against HUVEC cells assessed as inhibition of cell growth incubated for 44 hrs by Alamar Blue fluorescence assay. Format: functional. Particulars: Homo sapiens.
The nature of assay [1]: Antiangiogenic activity against human HREC cells assessed as inhibition of cell growth incubated for 44 hrs by Alamar Blue fluorescence assay. The class given is functional. For orientation: Alamar Blue is a resazurin reagent that responds to reducing activity.

As for `COc1cc(O)c(OC)c2c1C[C@@H](Cc1ccc(O)cc1)CO2`, the GI50 (with HUVEC; in assay [1]) was above 100 µM each time.

`COc1cc2c(c(O)c1OC)CC(Cc1ccc(O)cc1)CO2` (stereo unspecified): the GI50 in the assay on HUVEC is 90.1 µM; in assay [1], 3.47 µM.

With `COc1cc(OC)c2c(c1O)OCC(Cc1ccc(O)cc1)C2` (stereo unspecified), the GI50 in the assay on HUVEC is above 100 µM; in assay [1], 28.3 µM.

Consider `COc1c(O)cc2c(c1OC)C[C@H](Cc1ccc(O)cc1)CO2`, for which the GI50 (in the assay with HUVEC; in assay [1]) was above 100 µM throughout.

Regarding `COc1cc(O)c2c(c1OC)OCC(Cc1ccc(O)cc1)C2` (stereo unspecified), the GI50 (in the assay with HUVEC; in assay [1]) was above 100 µM throughout.

On to `COc1cc2c(c(OC)c1O)CC(Cc1ccc(O)cc1)CO2` (stereo unspecified), for which the values for the GI50 (in the assay on HUVEC; in assay [1]) were above 100 µM and 0.96 µM, respectively.

Regarding `COc1c(O)cc2c(c1OC)CC(Cc1ccc(O)cc1)CO2` (stereo unspecified), the GI50 (in the assay with HUVEC; in assay [1]) was above 100 µM each time.

With `COc1c(O)cc2c(c1OC)C[C@@H](Cc1ccc(O)cc1)CO2`, the GI50 (in the assay with HUVEC; in assay [1]) was above 100 µM in each case.

As a reminder, the GI50 is the concentration at which growth is held to half of that of the control.
